Laboratory results published in US20180325914A1, “INCREASING STORAGE OF VITAMIN A, VITAMIN D AND/OR LIPIDS” (Salk Institute for Biological Studies, priority 2014, published 2018).

What was measured:
[1] = tested on: primary murine HSCs; test: Lipid droplet accumulation assay (BODIPY staining); type: cell-based, mouse; conditions: day 6, JQ1 500 nM
Method: Primary murine HSCs were seeded onto chamber slides (Nunc). […] Media was aspirated, cells were washed twice with PBS (Gibco) and fixed in 10% buffered formalin at room temperature for 15 minutes. Fixative was removed and cells were washed three times with PBS. […] Dye was removed and cells were washed three times with PBS, then mounted using Vectastain mounting medium (Vector Labs). Fluorescence was visualized through the GFP filter on a Leica DM5000B fluorescent microscope. Nuclear counterstaining was performed using DAPI (Vector).

[2] = tested on: primary HSCs; test: Cell viability assay (CellTiter Glo), primary HSCs; type: cell-based, mouse; conditions: dose-dependent manner
Method: Primary HSCs or LX-2 cells were seeded onto 96-well tissue culture plates.

[3] = tested on: C57BL/6J mice; test: CCl4 model of liver injury and fibrosis, preventive study; type: in vivo, mouse; conditions: JQ1 50 mg/kg IP
Method: The animals were terminated 72 hours after the final CCl4 injection and whole livers were collected for histological, cytological, biochemical and molecular analyses.
5 μm sections of formalin-fixed liver were stained following standard hematoxylin-eosin (H&E) and Sirius Red methods and reviewed by a pathologist who was blinded to the experimental conditions. Fibrosis was scored using the Ishak modified histological activity index (HAI) scoring system. Liver fibrosis was also quantified using Image J software on 10 non-contiguous Sirius Red stained sections. […] fibrosis was quantified using hydroxyproline assay. All images were obtained using a high-resolution Leica DFC420 digital camera mounted on an Olympus microscope equipped with ×4/0.13, ×10/0.30, ×20/0.50 and ×40/0.75 UplanFL N plan objective lenses and processed with the Leica Application Suite. Tissue hydroxyproline content was measured using a kit from Biovision (K555-100).
Liver samples were deparaffinized and rehydrated in PBS. Following antigen retrieval with the target retrieval solution (Dako, Glostrup, Denmark), endogenous peroxidase activity was blocked by incubation with 0.3% hydrogen peroxide. […]

[4] = tested on: Pancreatic cancer cell lines (AsPc1, MIAPaCa2, PancT and P53 2.1.1); test: Viability of pancreatic cancer cell lines in astromal or stromal hydrogels (Cell TiterGlo); type: cell-based; conditions: 500 nM JQ1, 72 hours, astromal or stromal culture conditions
Text: Pancreatic cancer cell lines (AsPc1, MIAPaCa2, PancT and P53 2.1.1) were embedded in HyStem®-C hydrogels (ESI-BIO) at a concentration of 5×10^5 cells/ml. For astromal hydrogels, Glycosil® and Extralink™ components were resuspended in degassed H2O per manufacturer's procotol, and Glycosil®+degassed H2O+Extralink™ were combined in a 1:1:1 ratio. For the stromal hydrogels, Glycosil®, Gelin-S® (denatured collagens), and Extralink™ components were resuspended in degassed H2O per manufacturer's procotol, and Glycosil®+Gelin-S®+Extralink™ were combined in a 1:1:1 ratio. Pancreatic cancer cells were resuspended in the hydrogels and seeded into 96-well plates, 100 μl/well (5×10^4 cells/well). Triplicate wells were seeded for each condition to be tested. After hydrogel polymerization was evident (30-45 minutes), DMEM+10% FBS was added to astromal wells and conditioned media from cancer-associated PSCs was added to stromal wells. Conditioned media was prepared by growing primary cancer-associated PSCs (grown out of human pancreatic tumors) to confluency, changing to fresh DMEM+10% FBS, then collecting the media after 48 hours and passing through a 0.45 um filter to clear debris. […] Viability assays were performed after 72 hours using the Cell TiterGlo reagent (Promega) according to the manufacturer's instructions, but with a 45 minute incubation to ensure efficient lysis in 3D cultures.

With `Cc1sc2c(c1C)C(c1ccc(Cl)cc1)=N[C@@H](CC(=O)OC(C)(C)C)c1nnc(C)n1-2` [JQ1, (S)-tert-butyl 2-(4-(4-chlorophenyl)-2,3,9-trimethyl-6H-thieno[3,2-f][1,2,4]triazolo[4,3-a][1,4]diazepin-6-yl)acetate] the “morphology, Acta2 distribution and lipid content of treated cells” value [1] was “closely resembled quiescent (day 1) cells”, the “anti-proliferative activity against activated HSCs” value [2] was “significant anti-proliferative activity” and the “liver fibrosis and markers of HSC activation” value ([3]; CCl4/JQ1 co-treated vs CCl4 mice, four weeks, Sirius red, hydroxyproline, Acta2, Ishak score) was “dramatic reduction”. For the same compound, the “CCl4-induced key fibrotic marker genes in liver (mRNA-Seq)” value [3] was “significant suppression” and the “growth of pancreatic cancer cell lines in vitro” value [4] was “significantly reduced”.
